Experiment [1] concerns N. gonorrhea RNase P (M1 RNA and C5 protein). Nature of the experiment: RNase P inhibition assay (fluorescence polarization, ptRNA Gln cleavage). The format is biochemical. Particulars: tested at 0.3, 1, 3 and 10 μM, result in words, numbers only in figures. From the text: The ability of compounds of the invention to inhibit RNase P enzymes can be assessed by standard techniques. For example, the cleavage of ptRNA^Gln by the enzyme N. Gonorrhea RNase P, can be monitored in the presence and absence of a candidate compound as described in the Example 23. The progress of the RNase P-mediated cleavage reaction can be assessed by measuring the fluorescence polarization level of the TAMRA moiety hybridized to the cleaved substrate
Compounds of the invention (see Table 1 and FIG. 3) were assayed for inhibition of RNase P activity. The assay components were the M1 RNA and C5 protein from N. gonorrhea and a model precursor tRNA substrate derived from Synechocystis ptGLN. The compounds were diluted in assay buffer (50 mM Tris-HCl, pH 7.5/100 mM […]/10 mM MgCl2/1 mM DTT/1 mg/ml BSA) from 2 μL of a 1 mM DMSO stock solutions in 384 well polypropylene plates to a concentration of 40 μM. 12.5 μL of each compound dilution was transferred to empty duplicate wells of two 384-well black polystyrene assay plates. One assay plate received 37.5 μL of assay buffer plus 12.5 μL of stop buffer (25 mM EDTA/1.25×SSC Buffer in PA buffer; SSC=150 mM NaCl, 15 mM sodium citrate and PA=50 mM TRIS hydrochloride, 100 mM ammonium chloride, 10 mM magnesium chloride) and was read immediately on a LJL Analyst fluorimeter to serve as a background fluorescence plate. The other plate sequentially received the following reagents diluted in assay buffer, 12.5 μL of 0.4 nM M1 RNA, 12.5 μL of 2 nM C5 protein, and 12.5 μL of 160 nM substrate. Wells were included that receive neither the M1 RNA nor the C5 protein to serve as no-enzyme controls. The enzymatic reaction was allowed to proceed for 30 minutes and was stopped by the addition of 12.5 μL per well of stop buffer containing 20 nM of a DNA-5′ TAMRA probe complementary to the 5′ end of the substrate. The probe was allowed to hybridize to the substrate for 2 hours, and the polarization status of the probe was measured using the LJL Analyst fluorimeter. All compounds were tested at 0.3 μM, 1 μM, 3 μM, and 10 μM concentrations. The results, which are expressed as a percentage of the control, were calculated using equation 1. In this equation, f is the fluorescence in counts per second; (f.enzyme+probe) is the fluorescence observed when enzymatic activity is uninhibited; (f.probe) is the fluorescence observed without enzymatic activity; and (f.compound+enzyme+probe) is the fluorescence observed when the enzymatic activity is modulated by a compound of the invention. Assay results for MES 35793 are shown in FIG. 7, and assay results for MES 31242, MES 82794, and MES 35793 are shown in FIG. 8. Other candidate RNase P inhibitors may be tested similarly using any RNase P holoenzyme and any appropriate RNase P substrate. [formula]
(Fluorescence polarisation rises when a labelled molecule tumbles more slowly, as on binding a larger partner.)

The subject of a further experiment is N. gonorrhea. Nature of the experiment: Bacterial inhibition assay, N. Gonorrhea growth. Format: cell-based. Particulars: tested at 1, 3 and 10 μM, result in words. As for the experimental part:
(§1) Compounds of the invention (see Table 1 and FIG. 3) were assayed for their ability to inhibit bacterial growth. Compounds were diluted from 10 mM DMSO stocks to 3 mM and 1 mM in DMSO. The compounds were further diluted from these stocks into saline for 200, […], and 20 μM stocks. Control antibiotics were diluted similarly. Overnight cultures of bacteria were made in the following manner. N. gonorrhea was streaked onto a chocolate agar plate and incubated at 35° C./5% CO2. A loopful from a stock plate of E. coli was added to 3 mL TSB medium, vortexed and incubated at 37° C. in the absence of CO2. An S. aureus culture was made as described for the E. coli culture, except that a nutrient broth was used instead of TSB medium. […]
(§2) On the following day bacteria were prepared by dilution into saline with O.D. 625 nM readings taken to determine the concentration of the bacteria. CFUs (colony forming units) were determined using the formula: CFU/mL=OD625×(1.5×10^8 CFU/mL/OD McFarland std)×dilution. […] Plates were incubated at 35° C. with O2 for 16-20 hours for S. aureus, S. pyogenes, and E. coli and read at OD665 in the Victor2 plate reader. […] The plates were read at OD490. […] The results, which are expressed as a percentage of the control, were calculated using equation 2. […]

The subject of experiment [2] is bacterial growth (N. gonorrhea, E. coli, S. aureus, S. pyogenes). Nature of the experiment: Bacterial inhibition assay (species not stated). The format is cell-based. Particulars: tested at 1, 3 and 10 μM; species not given, refers to FIGS. 1A-2. As for the experimental part:
The ability of compounds of the invention to inhibit bacterial growth can also be assessed by standard testing procedures, such as monitoring bacterial growth in the presence of one or more candidate compound. Any reduction in bacterial growth, in comparison to an uninhibited control, is a measure of the antibacterial activity of the compound. The antibacterial activity of some compounds of the invention were measured against N. gonorrhea, E. coli, S. aureus, and S. pyogenes (Example 23).
Compounds of the invention (see Table 1 and FIG. 3) were assayed for their ability to inhibit bacterial growth. Compounds were diluted from 10 mM DMSO stocks to 3 mM and 1 mM in DMSO. The compounds were further diluted from these stocks into saline for 200, 120, and 20 μM stocks. Control antibiotics were diluted similarly. Overnight cultures of bacteria were made in the following manner. N. gonorrhea was streaked onto a chocolate agar plate and incubated at 35° C./5% CO2. A loopful from a stock plate of E. coli was added to 3 mL TSB medium, vortexed and incubated at 37° C. in the absence of CO2. An S. aureus culture was made as described for the E. coli culture, except that a nutrient broth was used instead of TSB medium. Rather than make an overnight culture of S. pyogenes, a loopful of S. pyogenes from a blood plate or a stock plate was used the following day for direct cell suspension.
On the following day bacteria were prepared by dilution into saline with O.D. 625 nM readings taken to determine the concentration of the bacteria. CFUs (colony forming units) were determined using the formula: CFU/mL=OD625×(1.5×10^8 CFU/mL/OD McFarland std)×dilution. The four bacterial cultures were diluted initially to 5.5×10^7 CFU/mL. The bacteria were then further diluted into medium to 5.5×10^5 CFU/mL for S. aureus, S. pyogenes and E. coli and 5.5×10^6 CFU/mL for N. gonorrhea. S. aureus and E. coli are grown in CAMHB medium and S. pyogenes and N. gonorrhea in CAMHB-3% LHB medium. The bacteria were added one per plate at 200 μL per well. Compounds were added in 10 μL for final concentrations of 10, 3 and 1 μM in duplicate. Control antibiotics for S. aureus, oxacillin; for S. pyogenes, penicillin; for E. coli, ampicillin; and for N. gonorrhea, ciprofloxacin were added from 0.8 mg/ml to 0.003 mg/ml. Plates were incubated at 35° C. with O2 for 16-20 hours for S. aureus, S. pyogenes, and E. coli and read at OD665 in the Victor2 plate reader. Plates were incubated at 35° C. with 5% CO2 for 24 hours for N. gonorrhea at which time 40 μL of MTS reagent is added per well and incubated for 1 hour in same incubator. The plates were read at OD490. Compounds were tested at 1 μM, 3 μM, and 10 μM concentrations. The results, which are expressed as a percentage of the control, were calculated using equation 2. […]

A further experiment relates to S. aureus. In words: Bacterial inhibition assay, S. aureus growth. Format: cell-based. The note with it: tested at 1, 3 and 10 μM, result in words. As for the experimental part:
as §1, §2

Entries after “also recorded” stand apart in the source; their conditions may differ. Structures can show the parent of a compound that is named as a salt.

For the molecule `C/C(=N\NC(=N)N)c1cccc(C(=O)NCCNC(=O)c2cccc(/C(C)=N/NC(=N)N)c2)c1` [MES 10609, bisguanylhydrazone of N-(N′-2-(3-acetylbenzamido)-ethyl)-3-acetylbenzamide], the “inhibition of RNase P activity (fluorescence data, percentage of the control)” value in experiment [1] was “can inhibit RNase P activity”; in experiment [1] (listed as MES10609) it was “inhibitors of RNase P activity”. The “inhibition of bacterial growth, N. Gonorrhea growth data” value with N. gonorrhea is given as “can inhibit bacterial growth”. Besides, the “inhibitors of bacterial growth (summary statement)” value (“inhibitors” below) in experiment [2] is given as “inhibitors of bacterial growth”.

`C/C(=N\NC(=N)N)c1ccc(NC(=O)CNC(=O)c2cccc(/C(C)=N/NC(=N)N)c2)cc1` [MES 10635, Bisguanylhydrazone trifluoroacetic acid salt of N′-(3-acetylbenzoyl)-N-(4-acetylphenyl)glycinamide]: the “inhibition of RNase P activity (fluorescence data, percentage of the control)” value in experiment [1] is “inhibitors of RNase P activity; also recorded: can inhibit a representative RNase P”. Moreover, in the experiment on S. aureus, the “inhibition of bacterial growth, S. aureus data” value is recorded as “can inhibit bacterial growth”. In experiment [2], the “inhibitors” value is on record as “inhibitors of bacterial growth”.

With `C/C(=N\NC(=N)N)c1ccc(NC(=O)[C@H](Cc2ccccc2)NC(=O)c2cccc(/C(C)=N/NC(=N)N)c2)cc1` [MES 10636, Bisguanylhydrazone trifluoroacetic acid salt of N′-(3-acetylbenzoyl)-N-(4-acetylphenyl)phenylalaninamide], the “inhibition of RNase P activity (fluorescence data, percentage of the control)” value in experiment [1] is “can inhibit a representative RNase P”; in experiment [1] (listed as MES10636), “inhibitors of RNase P activity”. Besides, the “inhibition of bacterial growth, S. aureus data” value with S. aureus is reported as “can inhibit bacterial growth”. For the same molecule, in experiment [2], the “inhibitors” value was “inhibitors of bacterial growth”.

Consider `CCN1/C(=C/C=C/c2sc3c4ccccc4ccc3[n+]2CC)Sc2cc(C)c(C)cc21` [MES 31242], for which the “inhibition of RNase P activity (fluorescence data, percentage of the control)” value in experiment [1] is recorded as “can inhibit a representative RNase P”.

Turning to `CCN1/C(=C\C=c2/s/c(=C\c3sc4ccccc4[n+]3CC)n(CC)c2=O)Sc2ccccc21` [MES 35793], the “inhibition of RNase P activity (fluorescence data, percentage of the control)” value in experiment [1] was “can inhibit RNase P activity; also recorded: can inhibit a representative RNase P”. The “inhibition of bacterial growth, N. Gonorrhea growth data” value in the experiment on N. gonorrhea is on record as “can inhibit bacterial growth”. Also, the “inhibitors” value in experiment [2] is recorded as “inhibitors of bacterial growth”.

In the case of `CCN1/C(=C/c2sc3ccc(O)cc3[n+]2CC)C=Cc2ccc(C)cc21` [MES 82794], the “inhibition of RNase P activity (fluorescence data, percentage of the control)” value in experiment [1] is on record as “can inhibit a representative RNase P”.

The values are drawn from US7001924B2, “Inhibitors of RNase P proteins as antibacterial compounds” (Message Pharmaceuticals, priority 2001, dated 2006).
